Measured values as given in patent US20120277209A1, “PYRAZINE COMPOUNDS AS PHOSPHODIESTERASE 10 INHIBITORS” (Amgen Inc., priority 2009, published 2012).

These compounds were tested against PDE10 (UniProt Q9Y233) (assay: PDE10 enzyme inhibition, IMAP TR-FRET assay (MPDE10A7 Enzyme Activity and Inhibition)). Conditions: IC50 class against PDE10; read-out: IC50.
Format: biochemical
In short: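 PDE10A enzyme or tissue homogenate preincubated with compounds 30 min at room temperature, then fluorescein-labelled cAMP or cGMP added for 60 min. IMAP binding reagent stop, TR-FRET read. Values are mean IC50s, grouped into five potency classes.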

Row | Structure (SMILES) | IC50 [nM]
1 | CC(C)(C)OC(=O)N1CCC(CO)(c2nccnc2Oc2ccc(Nc3nc4ccccc4s3)cc2)CC1 [Example 206, tert-butyl 4-(3-(4-(benzo[d]thiazol-2-ylamino)phenoxy)pyrazin-2-yl)-4-(hydroxymethyl)piperidine-1-carboxylate] | 25 to 100
2 | Fc1cc(Oc2cnccn2)ccc1Nc1nc2ccccc2s1 [Example 216, N-(2-fluoro-4-(pyrazin-2-yloxy)phenyl)benzo[d]thiazol-2-amine] | 1000 to 5000
3 | Fc1cccc2nc(Nc3ccc(Oc4cnccn4)cc3)sc12 [Example 217, 7-fluoro-N-(4-(pyrazin-2-yloxy)phenyl)benzo[d]thiazol-2-amine] | 1000 to 5000
4 | Fc1ccc2sc(Nc3ccc(Oc4cnccn4)cc3)nc2c1 [Example 219, 5-fluoro-N-(4-(pyrazin-2-yloxy)phenyl)benzo[d]thiazol-2-amine] | 1000 to 5000
5 | O=C(c1ccc(Oc2nccnc2C2CCCC2)cc1)c1nc2ccccc2[nH]1 [Example 220, (1H-benzo[d]imidazol-2-yl)(4-(3-cyclopentylpyrazin-2-yloxy)phenyl)methanone] | 25 to 100
6 | O=C(c1ccc(Oc2nccnc2C2CCNCC2)cc1)c1nc2ccccc2[nH]1 [Example 230, (1H-benzo[d]imidazol-2-yl)(4-(3-(piperidin-4-yl)pyrazin-2-yloxy)phenyl)methanone] | < 25
7 | [2H]C([2H])([2H])C(=O)N1CCC(c2nccnc2Oc2ccc(C(=O)c3nc4ccccc4[nH]3)cc2)CC1 [Example 231, 1-(4-(3-(4-(1H-benzo[d]imidazole-2-carbonyl)phenoxy)pyrazin-2-yl)piperidin-1-yl)perdeuteroethanone] | < 25
8 | COCC(=O)N1CCC(c2nccnc2Oc2ccc(C(=O)c3nc4ccccc4[nH]3)cc2)CC1 [Example 232, 1-(4-(3-(4-(1H-benzo[d]imidazole-2-carbonyl)phenoxy)pyrazin-2-yl)piperidin-1-yl)-2-methoxyethanone] | < 25
9 | COCC(=O)N1CCC(c2nccnc2Oc2ccc(Nc3nc4ccccc4s3)cc2)CC1 [Example 233, 1-(4-(3-(4-(benzo[d]thiazol-2-ylamino)phenoxy)pyrazin-2-yl)piperidin-1-yl)-2-methoxyethanone] | < 25
10 | CC(F)C(=O)N1CCC(c2nccnc2Oc2ccc(C(=O)c3nc4ccccc4[nH]3)cc2)CC1 (centres unmarked) [Example 234, 1-(4-(3-(4-(1H-benzo[d]imidazole-2-carbonyl)phenoxy)pyrazin-2-yl)piperidin-1-yl)-2-fluoropropan-1-one] | < 25
11 | CC(F)C(=O)N1CCC(c2nccnc2Oc2ccc(Nc3nc4ccccc4s3)cc2)CC1 (centres unmarked) [Example 235, 1-(4-(3-(4-(benzo[d]thiazol-2-ylamino)phenoxy)pyrazin-2-yl)piperidin-1-yl)-2-fluoropropan-1-one] | < 25
12 | FCCN1CCC(c2nccnc2Oc2ccc(Nc3nc4ccccc4s3)cc2)CC1 [Example 236, N-(4-(3-(1-(2-fluoroethyl)piperidin-4-yl)pyrazin-2-yloxy)phenyl)benzo [d]thiazol-2-amine] | < 25

Other lines, results leading:

Row | IC50 [nM] | Structure (SMILES)
13 | < 25 | c1ccc2[nH]c(Nc3ccc(Oc4nccnc4C4CCOCC4)cc3)nc2c1 [Example 207, N-(4-(3-(tetrahydro-2H-pyran-4-yl)pyrazin-2-yloxy)phenyl)-1H-benzo[d]imidazol-2-amine]
14 | < 25 | c1ccc2sc(Nc3ccc(Oc4nccnc4C4CCOCC4)cc3)nc2c1 [Example 208, N-(4-(3-(tetrahydro-2H-pyran-4-yl)pyrazin-2-yloxy)phenyl)benzo[d]thiazol-2-amine]
15 | < 25 | COc1cccc2nc(Nc3ccc(Oc4nccnc4C4CCOCC4)cc3)[nH]c12 [Example 209, 7-methoxy-N-(4-(3-(tetrahydro-2H-pyran-4-yl)pyrazin-2-yloxy)phenyl)-1H-benzo[d]imidazol-2-amine]
16 | < 25 | N#CC1(c2nccnc2Oc2ccc(C(=O)c3nc4ccccc4[nH]3)cc2)CCOCC1 [Example 211, 4-(3-(4-(1H-benzo[d]imidazole-2-carbonyl)phenoxy)pyrazin-2-yl)tetrahydro-2H-pyran-4-carbonitrile]
17 | < 25 | COC(=O)C1(c2nccnc2Oc2ccc(Nc3nc4ccccc4s3)cc2)CCOCC1 [Example 212, methyl 4-(3-(4-(benzo[d]thiazol-2-ylamino)phenoxy)pyrazin-2-yl)tetrahydro-2H-pyran-4-carboxylate]
18 | < 25 | O=C(c1ccc(Oc2nccnc2C2(O)CCOCC2)cc1)c1nc2ccccc2[nH]1 [Example 213, (1H-benzo[d]imidazol-2-yl)(4-(3-(4-hydroxytetrahydro-2H-pyran-4-yl)pyrazin-2-yloxy)phenyl)methanone]
19 | < 25 | Fc1ccc2nc(Nc3ccc(Oc4nccnc4C4CCOCC4)cc3)sc2c1 [Example 214, 6-fluoro-N-(4-(3-(tetrahydro-2H-pyran-4-yl)pyrazin-2-yloxy)phenyl)benzo[d]thiazol-2-amine]
20 | < 25 | Fc1cc(Oc2nccnc2C2CCOCC2)ccc1Nc1nc2ccccc2s1 [Example 215, N-(2-fluoro-4-(3-(terahydro-2H-pyran-4-yl)pyrazin-2-yloxy)phenyl)benzo[d]thiazol-2-amine]
21 | < 25 | Fc1ccc2sc(Nc3ccc(Oc4nccnc4C4CCOCC4)cc3)nc2c1 [Example 218, 5-fluoro-N-(4-(3-(tetrahydro-2H-pyran-4-yl)pyrazin-2-yloxy)phenyl)benzo[d]thiazol-2-amine]
22 | < 25 | c1ccc2sc(Nc3ccc(Oc4nccnc4C4CCOC4)cc3)nc2c1 (centres unmarked) [Example 221, N-(4-(3-(TETRAHYDROFURAN-3-YL)PYRAZIN-2-YLOXY)PHENYL)BENZO[D]THIAZOL-2-AMINE]
23 | < 25 | O=C(c1ccc(Oc2nccnc2C2CCSCC2)cc1)c1nc2ccccc2[nH]1 [Example 222, 1H-BENZO[D]IMIDAZOLE-2-YL(4-(3-(TETRAHYDRO-2H-THIOPYRAN-4-YL)PYRAZIN-2-YLOXY)PHENYL)METHANONE]
24 | < 25 | CC(=O)N1CCC(c2nccnc2Oc2ccc(C(=O)c3nc4ccccc4[nH]3)cc2)CC1 [Example 224, 1-(4-(3-(4-(1H-BENZO[D]IMIDAZOLE-2-CARBONYL)PHENOXY)PYRAZIN-2-YL)PIPERIDIN-1-YL)ETHANONE]
25 | < 25 | CC(=O)N1CCC(c2nccnc2Oc2ccc(Nc3nc4ccccc4s3)cc2)CC1 [Example 225, 1-(4-(3-(4-(BENZO[D]THIAZOL-2-YLAMINO)PHENOXY)PYRAZIN-2-YL)PIPERIDIN-1-YL)ETHANONE]
26 | < 25 | O=C(c1ccc(Oc2nccnc2C2CCN(CCF)CC2)cc1)c1nc2ccccc2[nH]1 [Example 226, (1H-BENZO[D]IMIDAZOL-2-YL)(4-(3-(1-(2-FLUOROETHYL)PIPERIDIN-4-YL)PYRAZIN-2-YLOXY)PHENYL)METHANONE]
27 | < 25 | COC(=O)N1CCC(c2nccnc2Oc2ccc(C(=O)c3nc4ccccc4[nH]3)cc2)CC1 [Example 227, methyl 4-(3-(4-(1H-benzo[d]imidazole-2-carbonyl)phenoxy)pyrazin-2-yl)piperidine-1-carboxylate]
28 | < 25 | CC(=O)N1CCC(c2nccnc2Oc2ccc(C(O)c3nc4ccccc4[nH]3)cc2)CC1 (centres unmarked) [Example 228, 1-(4-(3-(4-((1H-benzo[d]imidazol-2-yl)(hydroxy)methyl)phenoxy)pyrazin-2-yl)piperidin-1-yl)ethanone]
29 | < 25 | COc1ncccc1-c1nccnc1Oc1ccc(C(O)c2nc3ccccc3[nH]2)cc1 (centres unmarked) [Example 229, (1H-BENZO[D]IMIDAZOL-2-YL)(4-(3-(2-METHOXYPYRIDIN-3-YL)PYRAZIN-2-YLOXY)PHENYL)METHANOL]
